Reference: patent US12692262B2, “Substituted ureas as orexin receptor agonists” (Merck Sharp & Dohme LLC, priority 2020, dated 2026)

Target: T1, human OX2R (Homo sapiens, UniProt O43614)
T1 construct: expressed in transfected cells; host or cells: CHO (Chinese hamster ovary) cells grown under G418 selection
T1 sequence (O43614 1-444): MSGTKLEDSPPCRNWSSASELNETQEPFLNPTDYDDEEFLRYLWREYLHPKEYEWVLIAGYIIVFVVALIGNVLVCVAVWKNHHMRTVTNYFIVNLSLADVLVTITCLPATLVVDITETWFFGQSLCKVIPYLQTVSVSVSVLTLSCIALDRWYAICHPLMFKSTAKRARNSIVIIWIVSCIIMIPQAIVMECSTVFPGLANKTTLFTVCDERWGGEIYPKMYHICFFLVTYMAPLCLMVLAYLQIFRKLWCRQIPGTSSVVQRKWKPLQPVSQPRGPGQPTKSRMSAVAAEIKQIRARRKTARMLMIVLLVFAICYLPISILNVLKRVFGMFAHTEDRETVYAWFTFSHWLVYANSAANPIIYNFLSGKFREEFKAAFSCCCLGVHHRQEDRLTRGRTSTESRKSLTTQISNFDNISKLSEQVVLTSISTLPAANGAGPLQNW
Experiment: IPOne (IP-1 accumulation) assay in CHO cells expressing human OX2R
Type: cell-based
Conditions: for EC50: CHO cells expressing human OX2R, IP-One assay, 2 h incubation, four parameter logistic fit, read-out: OX2R Potency, EC50; for % of maximum agonist effect (relative to Orexin A): percent effect vs mean max effect of a reference compound at 1 uM (100% activity vs Orexin A), human OX2R
Procedure, shortened: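 CHO cells stably expressing human OX2R, grown in Iscove's modified DMEM with 10% FBS; agonist-driven IP-1 accumulation via the Gαq pathway measured by HTRF (D2/AB-cryptate detection after lysis). EC50 taken as the inflection point of a four-parameter logistic fit.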

SMILES	EC50 [nM]	% of maximum agonist effect (relative to Orexin A) [%]
CCN(C(=O)N[C@@H](CCC(F)(F)F)C(F)(F)F)[C@H](C)c1cnc(OC)c(-c2cn3ccnc3c(OC)n2)c1 [Example 11-4, 1-ethyl-3-((S)-1,1,1,5,5,5-hexafluoropentan-2-yl)-1-((R)-1-(6-methoxy-5-(8-methoxyimidazo[1,2-a]pyrazin-6-yl)pyridin-3-yl)ethyl)urea]	0.7	101.6
CCN(C(=O)NC(C)C(F)F)[C@@H](c1cc(-c2cn3ccnc3c(OC)n2)c(OC)cn1)C(F)(F)F (stereo partly drawn) [Example 2-41, 3-(1,1-difluoropropan-2-yl)-1-ethyl-1-((S)-2,2,2-trifluoro-1-(5-methoxy-4-(8-methoxyimidazo[1,2-a]pyrazin-6-yl)pyridin-2-yl)ethyl)urea]	16.3	101.2
CCOc1cc(-c2cccc([C@@H](C)N(CC)C(=O)N[C@H](CC)CCC(F)(F)F)c2)cn2ccnc12 [Example 8-2, 1-((R)-1-(3-(8-ethoxyimidazo[1,2-a]pyridin-6-yl)phenyl)ethyl)-1-ethyl-3-((R)-6,6,6-trifluorohexan-3-yl)urea]	6.5	97.7
CCN(C(=O)N[C@@H](CCC(F)(F)F)C(F)(F)F)[C@H](C)c1cccc(-c2cc(OC)c3nc(O)cn3c2)c1 [Example 26, 1-ethyl-3-((S)-1,1,1,5,5,5-hexafluoropentan-2-yl)-1-((R)-1-(3-(2-hydroxy-8-methoxyimidazo[1,2-a]pyridin-6-yl)phenyl)ethyl)urea]	144	89.1
CCN(C(=O)N[C@@H](CCC(F)(F)F)C(F)(F)F)C(c1cc(-c2cc(OC)c3nccn3n2)c(OC)cn1)C(F)(F)F (stereo partly drawn) [Example 10-10, 1-ethyl-3-((S)-1,1,1,5,5,5-hexafluoropentan-2-yl)-1-(2,2,2-trifluoro-1-(5-methoxy-4-(8-methoxyimidazo[1,2-b]pyridazin-6-yl)pyridin-2-yl)ethyl)urea]	4.7	100.8
CCN(C(=O)NC(CC#N)C(F)(F)F)[C@H](C)c1cccc(-c2cn3ccnc3c(OC)n2)c1 (stereo partly drawn) [Example 1-14, 3-(3-cyano-1,1,1-trifluoropropan-2-yl)-1-ethyl-1-((R)-1-(3-(8-methoxyimidazo[1,2-a]pyrazin-6-yl)phenyl)ethyl)urea]	18.5	101.3
C=Cc1ccc([C@@H](C)N(CC)C(=O)N[C@H](CC)CCC(F)(F)F)cc1-c1ccc2nccn2c1 [Example 19, 1-ethyl-1-((R)-1-(3-(imidazo[1,2-a]pyridin-6-yl)-4-vinylphenyl)ethyl)-3-((R)-6,6,6-trifluorohexan-3-yl)urea]	23.2	94.9
CCN(C(=O)NC(CNS(=O)(=O)N(C)C)C(F)(F)F)[C@H](C)c1cccc(-c2cn3ccnc3c(OC)n2)c1 (stereo partly drawn) [Example 17, N-{3-[(dimethylsulfamoyl)amino]-1,1,1-trifluoropropan-2-yl}-N-ethyl-N-{(1R)-1-[3-(8-methoxyimidazo[1,2-a]pyrazin-6-yl)phenyl]ethyl}urea]	0.7	101.8
CCN(C(=O)NC(C#N)C1CCCC1)[C@H](C)c1cccc(-c2cn3ccnc3c(OC)n2)c1 (stereo partly drawn) [Example 1-10, 3-(cyano(cyclopentyl)methyl)-1-ethyl-1-((R)-1-(3-(8-methoxyimidazo[1,2-a]pyrazin-6-yl)phenyl)ethyl)urea]	8.3	101.0

More lines, in order of falling EC50, values ahead:

EC50 [nM]	% of maximum agonist effect (relative to Orexin A) [%]	SMILES
619	98.5	CCN(C(=O)N[C@@H](CCC(F)(F)F)C(F)(F)F)[C@H](C)c1cccc(-c2cc(OC)c3nc(C(F)(F)F)cn3c2)c1 [Example 27, 1-ethyl-3-((S)-1,1,1,5,5,5-hexafluoropentan-2-yl)-1-((R)-1-(3-(8-methoxy-2-(trifluoromethyl)imidazo[1,2-a]pyridin-6-yl)phenyl)ethyl)urea]
70.1	100.5	CCN(C(=O)N[C@@H](CCC(F)(F)F)C(F)(F)F)C(c1cc(-c2cn3c(C#N)cnc3c(OC)n2)c(OC)cn1)C(F)(F)F (stereo partly drawn) [Example 10-12, 1-(1-(4-(3-cyano-8-methoxyimidazo[1,2-a]pyrazin-6-yl)-5-methoxypyridin-2-yl)-2,2,2-trifluoroethyl)-1-ethyl-3-((S)-1,1,1,5,5,5-hexafluoropentan-2-yl)urea]
54.5	101.1	CCN(C(=O)N[C@@H](CCC(F)(F)F)C(F)(F)F)C(c1cc(-c2cn3cc(C)nc3c(OC)n2)c(OC)cn1)C1CC1 (stereo partly drawn) [Example 2-16, 1-(cyclopropyl(5-methoxy-4-(8-methoxy-2-methylimidazo[1,2-a]pyrazin-6-yl)pyridin-2-yl)methyl)-1-ethyl-3-((S)-1,1,1,5,5,5-hexafluoropentan-2-yl)urea]
29.3	96.8	CC[C@H](CCC(F)(F)F)NC(=O)N(CC)[C@H](C)c1cccc(-c2cc(OC(F)F)c3nccn3c2)c1 [Example 7-1, 1-((R)-1-(3-(8-(difluoromethoxy)imidazo[1,2-a]pyridin-6-yl)phenyl)ethyl)-1-ethyl-3-((R)-6,6,6-trifluorohexan-3-yl)urea]
20.1	98.0	CCOC(=O)CC(NC(=O)N(CC)[C@H](C)c1cccc(-c2cn3ccnc3c(OC)n2)c1)C(F)(F)F (stereo partly drawn) [Example 1-11, ethyl 3-(3-ethyl-3-((R)-1-(3-(8-methoxyimidazo[1,2-a]pyrazin-6-yl)phenyl)ethyl)ureido)-4,4,4-trifluorobutanoate]
5.5	100.5	CCc1nc(-c2cc([C@H](N(CC)C(=O)N[C@@H](CCC(F)(F)F)C(F)(F)F)C(F)(F)F)ncc2OC)cn2ccnc12 [Example 9-2, 1-ethyl-1-((S)-1-(4-(8-ethylimidazo[1,2-a]pyrazin-6-yl)-5-methoxypyridin-2-yl)-2,2,2-trifluoroethyl)-3-((S)-1,1,1,5,5,5-hexafluoropentan-2-yl)urea]
2.6	96.0	CC[C@H](CCC(F)(F)F)NC(=O)N(CC)[C@H](C)c1ccc(Cl)c(-c2cc(OC)c3nccn3c2)c1 [Example 14-2, 1-((R)-1-(4-chloro-3-(8-methoxyimidazo[1,2-a]pyridin-6-yl)phenyl)ethyl)-1-ethyl-3-((R)-6,6,6-trifluorohexan-3-yl)urea]
1.5	100.3	CCN(C(=O)N[C@@H](CCC(F)(F)F)C(F)(F)F)[C@H](C)c1cc(-c2cn3ccnc3c(OC)n2)ccn1 [Example 14-1, 1-ethyl-3-((S)-1,1,1,5,5,5-hexafluoropentan-2-yl)-1-((R)-1-(4-(8-methoxyimidazo[1,2-a]pyrazin-6-yl)pyridin-2-yl)ethyl)urea]
0.7	100.5	CCN(C(=O)N[C@@H](CCS(C)(=O)=O)C(F)(F)F)[C@@H](c1cc(-c2cn3ccnc3c(OC)n2)c(OC)cn1)C(F)(F)F [Example 2-36, 1-ethyl-1-((S)-2,2,2-trifluoro-1-(5-methoxy-4-(8-methoxyimidazo[1,2-a]pyrazin-6-yl)pyridin-2-yl)ethyl)-3-((S)-1,1,1-trifluoro-4-(methylsulfonyl)butan-2-yl)urea]
